In patent US8106065B2, “Antitussive agent” (Toray Industries, Inc., priority 2005, dated 2012):
Structures can show the parent of a compound that is named as a salt.

System: coughing induced by citric acid
Assay: Effect on guinea pig coughing models induced by citric acid
Assay type: in vivo
Conditions: s.c.; for effects for suppressing coughs in comparison to the cough number of the pathosis-induced group: Example 3, 0.1 mg/kg, p<0.05 t-Test; for antitussive effect (number of coughs): Comparative Example 1
From the text: The fact that the morphinan derivatives having the nitrogen-containing cyclic substituent, represented by Formula (I) and the pharmaceutically acceptable acid addition salts thereof are effective for the therapy of coughing may be confirmed by showing inhibitory action against coughing of a guinea pig, which coughing has been induced by administering citric acid to the guinea pig. The inhibitory action against the coughing induced by citric acid administration may be confirmed by the method described in the Examples, but the method is not restricted thereto.
A solution of test substance, a solution of positive control substance (codeine phosphate) or the administration solvent was subcutaneously administered to 6 week-old Hartley guinea pigs at a volume of 0.1 mL/100 g. After leaving the guinea pigs to stand for 25 minutes, they were retained in acrylic chambers for cough detection and the chambers were set to a measurement equipment. Thirty minutes after the subcutaneous administration of the test substance, the nebulizer was turned on and 100 mM citric acid solution, a cough inducer, was atomized and sprayed to the face of each guinea pig for a period of 15 minutes (velocity: 50 mm/min). A minipolygraph was used for recording, and the respiratory waveform within the period of 15 minutes was recorded. A signal when a large and acute change of flow rate compared to the respiratory waveform occurred independently was considered as a cough, and marked on the recording sheet. The marking was conducted while recording the respiratory waveform. When a large and continuous amplitude arose by struggling, the amplitude was distinguished by noting that it was caused by struggling. Since some coughings cause just before, and/or between struggling, the recording sheet and the motion of the guinea pig were observed as simultaneously as possible.

O=C1c2ccccc2C(=O)N1[C@@H]1CC[C@@]2(O)[C@H]3Cc4ccc(O)c5c4[C@@]2(CCN3CC2CC2)[C@H]1O5 [Compound 1, N-(17-cyclopropylmethyl-4,5α-epoxy-3,14-dihydroxy-morphinan-6β-yl)-phthalimide]
effect for suppressing coughs in comparison to the cough number of the pathosis-induced group (Example 1, 1 mg/kg, 100 mM citric acid spray 30 min after dosing, p<0.01, n=7): approximately 94%
effect for suppressing coughs in comparison to the cough number of the pathosis-induced group (Example 2, 0.003 mg/kg, p<0.025 1 tailed-Shirley-Williams-Test, n=3): approximately 50%

O=C1c2ccccc2S(=O)(=O)N1[C@@H]1CC[C@@]2(O)[C@H]3Cc4ccc(O)c5c4[C@@]2(CCN3CC2CC2)[C@H]1O5 [Compound 5, N-(17-cyclopropylmethyl-4,5α-epoxy-3,14-dihydroxy-morphinan-6β-yl)-O-sulfonbenzoic acid imide-tartaric acid salt]
effects for suppressing coughs in comparison to the cough number of the pathosis-induced group (n=3): ~28%

Oc1ccc2c3c1O[C@H]1[C@H](N4CCCC4)CC[C@@]4(O)[C@@H](C2)N(CC2CC2)CC[C@]314 [Compound 2, 17-cyclopropylmethyl-4,5α-epoxy-6β-(pyrrolidine-1-yl)-morphinan-3,14-diol.tartaric acid salt]
antitussive effect (number of coughs) (10 mg/kg): no antitussive effect was observed

O=C1c2ccccc2CN1[C@@H]1CC[C@@]2(O)[C@H]3Cc4ccc(O)c5c4[C@@]2(CCN3CC2CC2)[C@H]1O5 [Compound 4, 2-(7-cyclopropylmethyl-4,5α-epoxy-3,14-dihydroxy-morphinan-6β-yl)-2,3-dihydro-isoindol-1-one-tartaric acid salt]
effects for suppressing coughs in comparison to the cough number of the pathosis-induced group (n=3): ~25%

O=C1C2=C(CCCC2)C(=O)N1[C@@H]1CC[C@@]2(O)[C@H]3Cc4ccc(O)c5c4[C@@]2(CCN3CC2CC2)[C@H]1O5 [Compound 3, N-(17-cyclopropylmethyl-4,5α-epoxy-3,14-dihydroxy-morphinan-6β-yl)-3,4,5,6-tetrahydrophthalimide.tartaric acid salt]
effects for suppressing coughs in comparison to the cough number of the pathosis-induced group (n=3): approximately 29%

COc1ccc2c3c1O[C@H]1[C@@H](O)C=C[C@H]4[C@@H](C2)N(C)CC[C@@]341 [codeine phosphate, reference compound]
effect for suppressing coughs (Example 1, 10 mg/kg, 100 mM citric acid spray 30 min after dosing, vs pathosis-induced group, p<0.05, n=7): approximately 51%
effect for suppressing coughs (Example 2, 10 mg/kg, p<0.05 Welch-Test, n=3): approximately 37%

O=C1C=CC(=O)N1[C@@H]1CC[C@@]2(O)[C@H]3Cc4ccc(O)c5c4[C@@]2(CCN3CC2CC2)[C@H]1O5 [Compound 6, N-(17-cyclopropylmethyl-4,5α-epoxy-3,14-dihydroxy-morphinan-6β-yl)-maleimide-tartaric acid salt]
antitussive effect (number of coughs) (1 mg/kg): no antitussive effect was observed
